Measured values taken from US10736864B2, “Immunotherapeutic agent” (Immodulon Therapeutics Limited, priority 2016, dated 2020).

Tests used:
[1] = test system: splenocytes stimulated in vitro with ovalbumin; assay: In vitro splenocyte culture from treated mice, ovalbumin stimulation (cytokine ELISA); type: in vivo, BALB/c mice; settings: FIG. 3B; mice treated 5 μg s.c.; allergen (ovalbumin) stimulation; vs buffer
[2] = test system: allergic mice challenged with ovalbumin; assay: Murine model of allergic pulmonary inflammation: treatment studies (BAL cells and cytokines); type: in vivo, BALB/c mice; settings: vs vehicle; for number of eosinophils recovered in the BAL fluid / numbers of macrophages in BAL fluid / total cellular infiltrate in BAL fluid / IL-5 concentrations in the BAL fluid / IL-10 concentrations in the BAL fluid: Experiments 5 and 6, lipid 5 μg s.c.; for number of eosinophils recovered in the BAL fluid / numbers of macrophages in BAL fluid / total cellular infiltrate in BAL fluid: M. vaccae 0.1 mg s.c.
[3] = test system: freshly isolated murine peritoneal macrophages; assay: Proinflammatory cytokine and chemokine ligand mRNA levels (RNAseq) in LPS-stimulated peritoneal macrophages; type: cell-based
Experimental: This can be measured using RNAseq analysis of freshly isolated murine peritoneal macrophages stimulated with LPS, in the presence or absence of 10(Z)-hexadecenoic acid. […] Compounds of the invention are therefore useful in inhibiting the proinflammatory cascade that contributes to the pathology of sepsis.
This difference was observable as early as 6 h after LPS challenge, and was sustained for at least 24 h. The effect also appeared to be concentration and time dependent. The lowest concentration of 0.4 μM was ineffective at 6 h, but reduced IL-6 secretion to 40% of control levels at 24 h. This time and concentration dependence may indicate that a receptor-mediated transcriptional change is occurring. In contrast to the effects of 10(Z)-hexadecenoic acid on LPS-induced IL-6 secretion, it had no effect of IL-6 secretion by itself (FIG. 4D). A transcriptional change was confirmed by measurement of pro-inflammatory cytokine and chemokine ligand mRNA levels in macrophages pre-treated with 10(Z)-hexadecenoic acid for 1 h prior to LPS treatment (Table 2).

[4] = test system: freshly isolated murine peritoneal macrophages; assay: Sulforhodamine B (SRB) macrophage cell viability / cytotoxicity assay
Experimental: Sulforhodamine B (SRB) was used to assess cytotoxic effects of various concentrations of 10(Z)-hexadecenoic acid (10 μM, 50 μM, 100 μM, 250 μM, 500 μM, 1000 μM) after 0, 6, 12, 24, 48, and 72 h of incubation with freshly isolated murine peritoneal macrophages. Percent control growth is expressed as % viability and is a ratio of the amount of growth that occurred with treatment over the amount of growth that occurred in media. […] Data are expressed as mean±SEM of 3-7 mice per condition.
Cytotoxicity was determined using the sulforhodamine B (SRB) colorimetric assay, as previously described (Vichai and Kirtikara, 2006). Briefly, without removing the culture media, cells were fixed by adding cold trichloroacetic acid and incubated at 4° C. for 1 h. The plates were washed with slow-running tap water and set out to dry overnight. Then, 0.057% SRB (Cat. No. AC333130050, Fisher, Pittsburgh, Pa., USA), solubilized in 10 mMTris (Cat. No. BP153, Fisher), was added to each well. After 30 min, plates were washed with 1% acetic acid and set out to dry overnight. SRB was measured at 490 nm on a Synergy HT microplate reader (Part Number 7091000, Biotek, Winooski, Vt., USA). Cell viability was expressed as the ratio of experimental and control growth.

[5] = test system: freshly isolated murine peritoneal macrophages; assay: LPS-induced IL-6 secretion in freshly isolated peritoneal macrophages (ELISA); type: cell-based, BALB/c mice
Experimental: Experiment 7 was carried out to resolve if 10(Z)-hexadecenoic acid has a direct effect on immune cells. Macrophages were selected for this study on account of their ubiquity and diverse role in immune processes. To simulate inflammation, freshly isolated mouse peritoneal macrophages were challenged with lipopolysaccharide (LPS; 1 μg/mL) ex vivo.
Murine peritoneal macrophages were isolated as previously described (Zhang, X. et al. (2008)). Briefly, mice received one 1 ml i.p. injection of 3% thioglycollate medium (Cat. No. 9000-294, VWR, Radnor, Pa., USA). Ninety-six hours later, macrophages were collected in DPBS (Cat. No. 14190136, Invitrogen, Carlsbad, Calif., USA). Cells were centrifuged and resuspended in DMEM/F-12 (Cat. No. 10565018, Invitrogen) supplemented to be 10% (v/v) fetal bovine serum (Cat. No. 16000036, Invitrogen) and 1% penicillin/streptomycin (Cat. No. 15140148, Invitrogen). One mouse yielded enough cells for one experimental replicate. 1×10^5 cells/well were allowed to adhere for 1.5 h before being washed with DPBS. 10(Z)-hexadecenoic acid was dissolved in DMEM/F-12 with 0.5% (v/v) dimethyl sulfoxide (Cat. No. D8418, Sigma-Aldrich). The macrophages were incubated with either 10(Z)-hexadecenoic acid (0.4 μM, 4 μM, 20 μM, 100 μM, 500 μM, 1000 μM) or DMEM/F-12 for 1 h before being stimulated with 1 μg/ml lipopolysaccharide (serotype 0127:B8, Sigma-Aldrich, St. Louis, Mo., USA). Culture supernatants were collected at 6, 12, and 24 h post-stimulation.
Cell culture supernatants from freshly isolated peritoneal macrophages were diluted 1:200, and IL-6 was measured using sandwiched ELISA (Cat. No. 431304, Biolegend, San Diego, Calif., USA). All samples were measured in duplicate.

CCCCC/C=C\CCCCCCCCC(=O)OCC(COC(=O)CCCCCCCC/C=C\CCCCC)OC(=O)CCCCCCCC/C=C\CCCCC [1,2,3-tri[Z-10-hexadecenoyl]glycerol]
IL-5 levels in the supernatant of splenocytes [1]: decrease
IL-10 levels in the supernatant of splenocytes [1]: increase
number of eosinophils recovered in the BAL fluid [2]: reduction
numbers of macrophages in BAL fluid [2]: not increased
total cellular infiltrate in BAL fluid [2]: reduction
IL-5 concentrations in the BAL fluid [2]: decrease
IL-10 concentrations in the BAL fluid [2]: increase

CCCCC/C=C\CCCCCCCCC(=O)O [10(Z)-hexadecenoic acid]
Ccl17 mRNA Mean #Reads s148.2 + LPS ([3]; preincubation then LPS, n = 3, LPS alone 24): 3
II11 mRNA Mean #Reads s148.2 + LPS ([3]; preincubation then LPS, n = 3, LPS alone 26): 5
Ccl22 mRNA Mean #Reads s148.2 + LPS ([3]; preincubation then LPS, n = 3, LPS alone 327): 117
Ccl4 mRNA Mean #Reads s148.2 + LPS ([3]; preincubation then LPS, n = 3, LPS alone 603): 305
II12a mRNA Mean #Reads s148.2 + LPS ([3]; preincubation then LPS, n = 3, LPS alone 714): 268
Ccl6 mRNA Mean #Reads s148.2 + LPS ([3]; preincubation then LPS, n = 3, LPS alone 810): 368
Ccl7 mRNA Mean #Reads s148.2 + LPS ([3]; preincubation then LPS, n = 3, LPS alone 1182): 441
II6 mRNA Mean #Reads s148.2 + LPS ([3]; preincubation then LPS, n = 3, LPS alone 1302): 305
Tnf mRNA Mean #Reads s148.2 + LPS ([3]; preincubation then LPS, n = 3, LPS alone 2098): 1023
Cxcl2 mRNA Mean #Reads s148.2 + LPS ([3]; preincubation then LPS, n = 3, LPS alone 4726, functional homologue of human IL-8): 2680
Ccl2 mRNA Mean #Reads s148.2 + LPS ([3]; preincubation then LPS, n = 3, LPS alone 5656): 2234
Ccl3 mRNA Mean #Reads s148.2 + LPS ([3]; preincubation then LPS, n = 3, LPS alone 6693): 4067
II1b mRNA Mean #Reads s148.2 + LPS ([3]; preincubation then LPS, n = 3, LPS alone 15,957): 5349
II1a mRNA Mean #Reads s148.2 + LPS ([3]; preincubation then LPS, n = 3, LPS alone 16533): 8500
Ccl2 mRNA Effect ([3]; vs LPS alone): ↓
Ccl2 mRNA Fold-change ([3]; vs LPS alone): 0.39
Ccl2 mRNA Log2 Fold-change ([3]; vs LPS alone): −1.34
Ccl3 mRNA Effect ([3]; vs LPS alone): ↓
Ccl3 mRNA Fold-change ([3]; vs LPS alone): 0.61
Ccl3 mRNA Log2 Fold-change ([3]; vs LPS alone): −0.72
Ccl4 mRNA Effect ([3]; vs LPS alone): ↓
Ccl4 mRNA Fold-change ([3]; vs LPS alone): 0.51
Ccl4 mRNA Log2 Fold-change ([3]; vs LPS alone): −0.98
Ccl6 mRNA Effect ([3]; vs LPS alone): ↓
Ccl6 mRNA Fold-change ([3]; vs LPS alone): 0.45
Ccl6 mRNA Log2 Fold-change ([3]; vs LPS alone): −1.14
Ccl7 mRNA Effect ([3]; vs LPS alone): ↓
Ccl7 mRNA Fold-change ([3]; vs LPS alone): 0.37
Ccl7 mRNA Log2 Fold-change ([3]; vs LPS alone): −1.42
Ccl17 mRNA Effect ([3]; vs LPS alone): ↓
Ccl17 mRNA Fold-change ([3]; vs LPS alone): 0.12
Ccl17 mRNA Log2 Fold-change ([3]; vs LPS alone): −3.08
Ccl22 mRNA Effect ([3]; vs LPS alone): ↓
Ccl22 mRNA Fold-change ([3]; vs LPS alone): 0.36
Ccl22 mRNA Log2 Fold-change ([3]; vs LPS alone): −1.48
Cxcl2 mRNA Effect ([3]; vs LPS alone): ↓
Cxcl2 mRNA Fold-change ([3]; vs LPS alone): 0.57
Cxcl2 mRNA Log2 Fold-change ([3]; vs LPS alone): −0.82
II1a mRNA Effect ([3]; vs LPS alone): ↓
II1a mRNA Fold-change ([3]; vs LPS alone): 0.51
II1a mRNA Log2 Fold-change ([3]; vs LPS alone): −0.96
II1b mRNA Effect ([3]; vs LPS alone): ↓
II1b mRNA Fold-change ([3]; vs LPS alone): 0.34
II1b mRNA Log2 Fold-change ([3]; vs LPS alone): −2.16
II6 mRNA Effect ([3]; vs LPS alone): ↓
II6 mRNA Fold-change ([3]; vs LPS alone): 0.23
II6 mRNA Log2 Fold-change ([3]; vs LPS alone): −2.09
II11 mRNA Effect ([3]; vs LPS alone): ↓
II11 mRNA Fold-change ([3]; vs LPS alone): 0.20
II11 mRNA Log2 Fold-change ([3]; vs LPS alone): −2.35
II12a mRNA Effect ([3]; vs LPS alone): ↓
II12a mRNA Fold-change ([3]; vs LPS alone): 0.37
II12a mRNA Log2 Fold-change ([3]; vs LPS alone): −1.42
Tnf mRNA Effect ([3]; vs LPS alone): ↓
Tnf mRNA Fold-change ([3]; vs LPS alone): 0.49
Tnf mRNA Log2 Fold-change ([3]; vs LPS alone): −1.04
numbers of neutrophils in BAL fluid ([2]; Experiment 6): did not induce increases
number of eosinophils recovered in the BAL fluid [2]: significant reduction
numbers of macrophages in BAL fluid [2]: did not induce increases
total cellular infiltrate in BAL fluid [2]: significant reduction
IL-5 concentrations in the BAL fluid [2]: decrease
IL-10 concentrations in the BAL fluid [2]: increase
viable macrophages ([4]; 1 mM, at most time points (0-72 h)): less than 40%
macrophage viability ([4]; all other concentrations (10-500 μM), vs media controls): as viable as or more viable than media controls
LPS-induced IL-6 secretion ([5]; 0.4 μM, 6 h after LPS): ineffective
LPS-induced IL-6 secretion ([5]; 0.4 μM, 24 h after LPS): 40 % of control levels
LPS-induced IL-6 secretion ([5]; 1 h preincubation (0.4-1000 μM), LPS 1 μg/mL, 6, 12, 24 h, vs media alone): secreted less IL-6
IL-6 secretion by itself ([5]; absence of LPS, FIG. 4D): no effect
